Results: patent publication US6972178B1, “Drug screening using a proline-rich nuclear receptor co-regulatory protein/nuclear receptor co-expression system” (City of Hope, priority 1999, dated 2005)

Tests used:
Experiment in all cases: Yeast two-hybrid assay (HIS3 / β-galactosidase reporter)
Assay type in all cases: cell-based
GR HBD = settings: 10 μM of deoxycorticosterone
Description: (§1) The protein-protein interactions between the full-length PNRC or PNRC fragments and SF1, ERRα1, and several other nuclear receptors were analyzed by yeast two-hybrid assays. The yeast two-hybrid assay was used to test if PNRC also interacts with other members of the nuclear receptor superfamily. pGBT9-ERRα-1 yeast expression plasmid was prepared by inserting the PCR-amplified ERRA-1 coding region into pGBT9 through an EcoRI site. To construct the plasmid pGBT9-ER274-595, the coding sequence from amino acids 274 to 595 (LBD) of ERα was amplified by PCR with the sense primer 5′-[…]-3′ (SEQ ID NO:1) and antisense primer 5′-[…]-3′ (SEQ ID NO:2) and cloned into the EcoRI/,SalI site of the pGBT9 yeast expression plasmid. pSG5-GRIP1 and several yeast expression plasmids coding for fusion proteins of Gal4-DBD and HBDs of AR, GR, PR, TR, RAR, and RXR in pGBT9 vector were kindly provided by Dr. Michael R. Stallcup (University of Southern California, Los Angeles, Calif.) (Voegel et al., 1996; Hong et al., 1996; Ding et al., 1998). The yeast mating approach was used in yeast two-hybrid assays to study protein-protein interactions as described in Clontech's protocol. Briefly, pGBT9 (DNA-BD vector only), pGBT9/target plasnmids for SF1, ERRα1, and other HBDs of nuclear receptors, and DNA-BD/control plasmids (as negative control) were introduced into the reporter strain Y187, and the AD vector alone or wild type PNRC and its deleted fragments-containing pACT2 derivatives were used to transform yeast strain CG1945. The yeast mating was performed by picking one colony from each type and growing both colonies in liquid YPD medium with or without a proper ligand at the following concentrations: 100 nM of estradiol for ER; 10 μM of deoxycorticosterone for GR; 100 nM of dihydrotestosterone for AR; 500 nM of progesterone for PR; 10 μM of T3 for TR; 10 μM of all-trans-retinoic acid for RAR; and 10 μM of 9-cis-retinoic acid for RXR. The same amount of an aliquot of the mating culture was spread on both SD/-Leu/-Trp plates to select diploid strains bearing both plasmids and SD/-Leu/-Trp/-His/+3-AT plates to score the growth of the diploid cells that express the two interacting target proteins. The His3 positive colonies were further analyzed for β-galactosidase activity by liquid β-galactosidase activity measurement as essentially described in the protocol.
(§2) Yeast strains Y187 expressing the Gal4DB fusion to the nuclear receptors and CG1945expressing Gal4AD alone or Gal4AD-PNRC fusion protein were mated by co-culturing, and selected for the presence of both two-hybrid plasmids. The expression of interacting hybrid proteins in yeast diploids was analyzed to determine if there was induction of HIS3 expression as shown in FIG. 1A and LacZ expression as shown in FIGS. 1B and 1C. […] As shown in FIGS. 1A-C, PNRC also interacted specifically with all seven nuclear receptor HBDs, including ER, AR, GR, TR, PR, RAR and RXR, and these interactions were completely ligand-dependent. […] However, no interactions occurred either between PNRC and an irrelevant protein such as human lamin C protein or between nuclear receptors and Gal4activation domain alone.

ER (ERα LBD, aa 274-595) = target: T1, ER (ERα LBD, aa 274-595) (Homo sapiens, UniProt P03372); settings: 100 nM of estradiol
T1 construct: expressed in transfected cells; host or cells: yeast Y187 x CG1945 diploids
Description: as §1, §2

AR HBD = target: T2, AR HBD (Homo sapiens, UniProt P10275); settings: 100 nM of dihydrotestosterone
T2 construct: fusion proteins of Gal4-DBD and HBDs of AR, GR, PR, TR, RAR, and RXR in pGBT9 vector; expressed in transfected cells; host or cells: yeast Y187 x CG1945 diploids; plasmid a gift of M. R. Stallcup
Description: as §1, §2

TR HBD = settings: 10 μM of T3
Description: as §1, §2

RXR HBD = settings: 10 μM of 9-cis-retinoic acid
Description: as §1, §2

ERRα1 = target: T3, ERRα1 (Homo sapiens, UniProt P11474); settings: no ligand
T3 construct: inserting the PCR-amplified ERRA-1 coding region into pGBT9 through an EcoRI site; expressed in transfected cells; host or cells: yeast Y187 x CG1945 diploids
T3 sequence (P11474 1-423): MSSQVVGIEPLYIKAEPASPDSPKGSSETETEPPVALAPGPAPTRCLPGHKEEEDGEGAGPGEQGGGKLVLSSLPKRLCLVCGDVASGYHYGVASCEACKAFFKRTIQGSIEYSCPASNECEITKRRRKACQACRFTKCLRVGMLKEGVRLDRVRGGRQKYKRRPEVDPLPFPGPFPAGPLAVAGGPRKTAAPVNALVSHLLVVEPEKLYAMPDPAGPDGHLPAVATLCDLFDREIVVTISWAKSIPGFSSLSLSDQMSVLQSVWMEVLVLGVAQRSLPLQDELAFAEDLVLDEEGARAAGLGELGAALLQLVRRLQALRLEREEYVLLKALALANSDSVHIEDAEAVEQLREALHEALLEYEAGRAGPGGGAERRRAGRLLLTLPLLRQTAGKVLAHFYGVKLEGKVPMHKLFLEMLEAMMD
Description: as §1, §2

RAR HBD = settings: 10 μM of all-trans-retinoic acid
Description: as §1, §2

PR HBD = settings: 500 nM of progesterone
Description: as §1, §2

PR HBD, sequence (P06401 679-933 limits assumed): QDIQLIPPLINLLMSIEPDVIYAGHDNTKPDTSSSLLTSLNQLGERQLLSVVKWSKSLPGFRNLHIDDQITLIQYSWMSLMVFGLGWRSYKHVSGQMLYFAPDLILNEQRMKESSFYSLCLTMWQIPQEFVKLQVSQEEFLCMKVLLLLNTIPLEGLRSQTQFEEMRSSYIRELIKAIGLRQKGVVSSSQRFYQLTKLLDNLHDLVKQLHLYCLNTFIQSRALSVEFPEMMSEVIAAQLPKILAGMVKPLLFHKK
T1 sequence (P03372 274-595): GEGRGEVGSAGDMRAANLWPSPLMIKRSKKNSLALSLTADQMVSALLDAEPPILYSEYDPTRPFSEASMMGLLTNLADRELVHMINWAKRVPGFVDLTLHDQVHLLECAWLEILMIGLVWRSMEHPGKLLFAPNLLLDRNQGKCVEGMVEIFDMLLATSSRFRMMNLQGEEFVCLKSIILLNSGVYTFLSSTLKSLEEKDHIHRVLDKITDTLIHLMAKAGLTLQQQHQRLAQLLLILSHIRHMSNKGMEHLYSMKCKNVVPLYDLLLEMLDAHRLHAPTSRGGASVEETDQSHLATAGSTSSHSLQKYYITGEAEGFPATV
T1 sequence (Q12796 whole entry partner, the tested form may be a part): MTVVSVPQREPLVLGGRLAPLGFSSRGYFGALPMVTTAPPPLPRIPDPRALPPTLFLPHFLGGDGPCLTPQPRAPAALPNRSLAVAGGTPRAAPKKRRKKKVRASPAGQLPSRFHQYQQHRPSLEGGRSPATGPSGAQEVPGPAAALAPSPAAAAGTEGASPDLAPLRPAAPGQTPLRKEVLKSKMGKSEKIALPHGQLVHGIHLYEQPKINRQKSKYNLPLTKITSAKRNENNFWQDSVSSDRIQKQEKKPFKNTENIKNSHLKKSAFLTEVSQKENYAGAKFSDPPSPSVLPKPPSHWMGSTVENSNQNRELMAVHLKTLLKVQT
T2 sequence (P10275 669-900 limits assumed): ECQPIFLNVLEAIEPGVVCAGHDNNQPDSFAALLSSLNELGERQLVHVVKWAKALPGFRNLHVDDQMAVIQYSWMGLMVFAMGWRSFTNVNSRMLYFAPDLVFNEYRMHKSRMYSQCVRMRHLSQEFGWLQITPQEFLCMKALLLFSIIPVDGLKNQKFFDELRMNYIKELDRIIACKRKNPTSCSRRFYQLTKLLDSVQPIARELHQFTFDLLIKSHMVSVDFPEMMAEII
T2 sequence (Q12796 whole entry partner, the tested form may be a part): as the sequence (Q12796 whole entry partner, the tested form may be a part) above

Question: What does the source list for “PNRC: proline-rich nuclear receptor co-regulatory protein, 327 aa, SEQ ID NO:8, nuclear receptor coactivator”?
Answer: interaction with GR (GR HBD): only weak interactions were detected; interaction with ER (ER (ERα LBD, aa 274-595)): only weak interactions were detected; interaction with AR (AR HBD): only weak interactions were detected; interaction with TR (TR HBD): interacts strongly; interaction with RXR (RXR HBD): interacts strongly; interaction with ERRα1 (ERRα1): interacted with orphan receptors SF1 and ERRα1 in the absence of any added activator or ligand; interaction with RAR (RAR HBD): only weak interactions were detected; interaction with PR (PR HBD): interacts strongly
